Consider 17 compounds from ChEMBL document CHEMBL1140353, “Structure-activity relationships of 1-alkyl-5-(3,4-dichlorophenyl)-5-{2-[3-(substituted)-1-azetidinyl]-ethyl}-2-piperidones. Part 2: Improving oral absorption” (Bioorg Med Chem Lett, 2005).

The target of series [1] is T1, Substance-K receptor (Homo sapiens, UniProt P21452).
T1 sequence (P21452 whole entry): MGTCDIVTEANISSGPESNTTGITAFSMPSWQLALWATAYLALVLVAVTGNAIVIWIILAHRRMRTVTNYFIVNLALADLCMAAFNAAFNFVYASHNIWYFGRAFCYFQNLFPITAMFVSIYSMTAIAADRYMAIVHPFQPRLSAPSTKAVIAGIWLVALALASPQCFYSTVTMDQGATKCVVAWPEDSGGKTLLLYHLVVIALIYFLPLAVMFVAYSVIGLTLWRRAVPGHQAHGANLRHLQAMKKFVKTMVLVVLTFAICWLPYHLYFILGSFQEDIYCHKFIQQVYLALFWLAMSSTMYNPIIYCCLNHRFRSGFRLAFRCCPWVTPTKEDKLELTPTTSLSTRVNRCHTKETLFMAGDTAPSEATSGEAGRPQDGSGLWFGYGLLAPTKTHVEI
Briefly: Inhibition of human Neurokinin 2 receptor.

The species named for series [2] is Homo sapiens. Briefly: Ratio of apical basolateral (A-B) and basolateral apical (B-A) determined by Caco-2 assay in human (ER=1). Format: ADME.
Series [3] addresses T2, Substance-K receptor (Oryctolagus cuniculus, UniProt P79218).
T2 sequence (P79218 whole entry): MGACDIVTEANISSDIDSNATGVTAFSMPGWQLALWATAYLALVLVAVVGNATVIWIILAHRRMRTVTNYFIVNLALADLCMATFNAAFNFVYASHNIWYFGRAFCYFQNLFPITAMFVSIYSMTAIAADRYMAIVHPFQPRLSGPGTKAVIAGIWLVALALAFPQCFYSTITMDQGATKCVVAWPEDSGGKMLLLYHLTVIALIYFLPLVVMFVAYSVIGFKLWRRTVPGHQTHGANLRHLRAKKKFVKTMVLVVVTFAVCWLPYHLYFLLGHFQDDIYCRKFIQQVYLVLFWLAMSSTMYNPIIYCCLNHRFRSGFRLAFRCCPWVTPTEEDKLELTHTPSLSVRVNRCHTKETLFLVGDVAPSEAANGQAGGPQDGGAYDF
Briefly: pA2 for NK2 receptor of rabbit pulmonary artery. Conditions: read-out: pA2 (converted). Format: functional.

The species entered for series [4] is Homo sapiens. Briefly: Ratio of apical basolateral (A-B) and basolateral apical (B-A) determined by Caco-2 assay in human (ER=60/60). Format: ADME.
The target in series [5] is T1, Substance-K receptor. Briefly: pKi for human Neurokinin 2 receptor.
A short description of series [6]: Half life in human microsomal liver cells. Format: ADME. To be noted: liver microsomes. In general terms: Microsomes from liver hold many membrane-bound enzymes, among them those of drug oxidation.
The target in series [7] is Substance-P receptor (Homo sapiens, UniProt P25103). Briefly: Inhibitory concentration for Tachykinin 1 receptor of human IM9 cells. Format: cell-based, IM-9.
Sequence of Substance-P receptor (P25103 whole entry): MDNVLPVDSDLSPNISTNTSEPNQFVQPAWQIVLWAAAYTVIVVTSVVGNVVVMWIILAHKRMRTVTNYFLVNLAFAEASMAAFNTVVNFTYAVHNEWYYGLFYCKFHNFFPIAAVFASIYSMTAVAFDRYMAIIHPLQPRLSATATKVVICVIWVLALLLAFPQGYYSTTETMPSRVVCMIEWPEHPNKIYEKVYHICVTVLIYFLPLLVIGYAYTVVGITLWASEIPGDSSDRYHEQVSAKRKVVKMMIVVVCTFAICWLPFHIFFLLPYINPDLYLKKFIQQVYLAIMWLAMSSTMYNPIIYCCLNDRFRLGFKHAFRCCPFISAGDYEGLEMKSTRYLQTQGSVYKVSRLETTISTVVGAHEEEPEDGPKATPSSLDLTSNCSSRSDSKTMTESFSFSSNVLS
Series [8] can be described thus: Oral absorption of 20 mg/kg tested in rat. Format: ADME, organism-based. More on the design: dose 20 mg/kg. To be noted: in vivo, read-out: Absorption.
For series [9], the species on record is Homo sapiens. Briefly: Ratio of apical basolateral (A-B) and basolateral apical (B-A) determined by Caco-2 assay in human (ER=6/12). Format: ADME.
The species named for series [10] is Homo sapiens. Briefly: Ratio of apical basolateral (A-B) and basolateral apical (B-A) determined by Caco-2 assay in human (ER<2). Format: ADME.
The species named for series [11] is Homo sapiens. Briefly: Ratio of apical basolateral (A-B) and basolateral apical (B-A) determined by Caco-2 assay in human (ER=12/16). Format: ADME.
The species entered for series [12] is Homo sapiens. Briefly: Ratio of apical basolateral (A-B) and basolateral apical (B-A) determined by Caco-2 assay in human (ER=33/35). Format: ADME.
Series [13] can be described thus: Distribution coefficient (Log D) value at pH 7.4. Format: physicochemical. Conditions: octanol/water.
The species named for series [14] is Homo sapiens. Briefly: Ratio of apical basolateral (A-B) and basolateral apical (B-A) determined by Caco-2 assay in human (ratio=12/18). Format: ADME.
Series [15] can be described thus: In vivo clearance of […] mg/kg of compound tested in human. Format: ADME, organism-based. Conditions: 10 mg/kg.
In series [16] the target is T1, Substance-K receptor. Briefly: pA2 for NK2 receptor of Human bladder. Format: functional. To be noted: read-out: pA2 (converted).
A short description of series [17]: Oral absorption of 10 mg/kg tested in rat. More on the design: dose 10 mg/kg. Format: ADME, organism-based. To be noted: in vivo, read-out: Absorption.
The species entered for series [18] is Homo sapiens. Briefly: Ratio of apical basolateral (A-B) and basolateral apical (B-A) determined by Caco-2 assay in human; (ratio=1/18). Format: ADME.
Series [19] is filed under the species Homo sapiens. Briefly: Ratio of apical basolateral (A-B) and basolateral apical (B-A) determined by Caco-2 assay in human (ratio=2/3). Format: ADME.
Series [20] is filed under the species Homo sapiens. Briefly: Ratio of apical basolateral (A-B) and basolateral apical (B-A) determined by Caco-2 assay in human. Format: ADME.
Series [21] is filed under the species Homo sapiens. Briefly: Ratio of apical basolateral (A-B) and basolateral apical (B-A) determined by Caco-2 assay in human (ER=2/12). Format: ADME.

In series [1], `CCOC1CCN(C2CN(CC[C@]3(c4ccc(Cl)c(Cl)c4)CCC(=O)N(CC4CC4)C3)C2)CC1` had an IC50 of 15.8 nM. Further, in series [2], the Caco-2 permeability was found to be 34 % hr-1. In addition, in series [3], the Kb is 6.31 nM.
Consider `O=C1CC[C@](CCN2CC(N3CCC(F)CC3)C2)(c2ccc(Cl)c(Cl)c2)CN1C1(C2CC2)CCCC1`, for which the Caco-2 permeability entry in series [4] was “Permeable”. The compound also registered a negative logarithm of the Ki (pKi) in [5] of 10. Besides, the half-life in [6] was 0.0333 h.
On to `O=C1CC[C@](CCN2CC(N3CCC(F)CC3)C2)(c2ccc(Cl)c(Cl)c2)CN1CC1CCC(F)(F)CC1`, for which the IC50 in [7] was over 10000 nM; in series [1], 0.398 nM. The Fa in series [8] was over 80%. The Caco-2 permeability in series [2] was over 35 % hr-1. In [6], the half-life is over 2 h.
As for `CN(C)S(=O)(=O)N1CCN(C2CN(CC[C@]3(c4ccc(Cl)c(Cl)c4)CCC(=O)N(CC4CC4)C3)C2)CC1`, the IC50 in series [1] is 15.8 nM. Moreover, the Kb in series [3] is 10 nM.
The matching figures for `O=C1CC[C@](CCN2CC(N3CCC(F)CC3)C2)(c2ccc(Cl)c(Cl)c2)CN1CCC1CC1`: 2.51 nM and 1.58 nM.
With `CS(=O)(=O)N1CCN(C2CN(CC[C@]3(c4ccc(Cl)c(Cl)c4)CCC(=O)N(CC4CCC(F)(F)CC4)C3)C2)CC1`, the Caco-2 permeability result in series [9] is on record as “Permeable”. Moreover, in series [1], the half-inhibitory concentration (IC50) was 1.26 nM. Also, the Kb in [3] is 1 nM.
The compound `CS(=O)(=O)N1CCN(C2CN(CC[C@]3(c4ccc(Cl)c(Cl)c4)CCC(=O)N(CC4CC4)C3)C2)CC1` gave a half-inhibitory concentration (IC50) in series [1] of 7.94 nM. Moreover, in [3], the Kb was 3.16 nM. In addition, the Caco-2 permeability in [10] amounted to 10 % hr-1. The compound further gave a half-life in series [6] of under 0.167 h.
Compound `O=C1CC[C@](CCN2CC(N3CCOCC3)C2)(c2ccc(Cl)c(Cl)c2)CN1CC1CCCCC1` gave an IC50 in series [1] of 0.794 nM. In series [3], the Kb was 1 nM. In series [11], the Caco-2 permeability entry is on record as “Permeable”. The compound further had a half-life in [6] of 0.233 h.
Compound `O=C1CC[C@](CCN2CC(N3CCOCC3)C2)(c2ccc(Cl)c(Cl)c2)CN1CC1CCC(F)(F)CC1` gave an IC50 in [1] of 7.94 nM. Further, the Kb in [3] is 1.26 nM. The Caco-2 permeability result in [12] is given as “Permeable”. For the same compound, the half-life in series [6] turned out to be 1.33 h.
Turning to `O=C1CC[C@](CCN2CC(N3CCC(F)CC3)C2)(c2ccc(Cl)c(Cl)c2)CN1CC1CC1`, in series [4], the Caco-2 permeability entry is “Permeable”. In addition, in series [1], 10 nM corresponded to half-maximal inhibition (IC50). Moreover, the Kb in series [3] is 2.51 nM. The compound further showed a half-life in series [6] of 1.42 h.
In series [5], `O=C1CC[C@](CCN2CC(N3CCOCC3)C2)(c2ccc(Cl)c(Cl)c2)CN1C1(C2CC2)CCCC1` came in with a pKi of 9.5. In addition, in [3], the Kb is 0.251 nM. In addition, in series [6], the half-life was under 0.0167 h.
As for `O=C1CC[C@](CCN2CC(N3CCOCC3)C2)(c2ccc(Cl)c(Cl)c2)CN1CC1CC1`, the log distribution coefficient (logD) in [13] is 2.3. In series [1], the IC50 was 79.4 nM. Further, the Kb in series [3] was 2 nM. Besides, the Caco-2 permeability entry in [14] is listed as “Permeable”. In series [6], this compound came in with a half-life of 2 h.
With `NS(=O)(=O)N1CCN(C2CN(CC[C@]3(c4ccc(Cl)c(Cl)c4)CCC(=O)N(CC4CC4)C3)C2)CC1`, the clearance in [15] was under 3 mL/min/kg. In series [13], this compound gave a pH-dependent lipophilicity (logD) of 1.7. In addition, the Kb in series [16] was 1.58 nM; in series [3] it was 1.26 nM. Further, in series [1], the IC50 is 3.98 nM. The Fa in series [17] was under 20%. Moreover, in series [18], the Caco-2 permeability entry is on record as “Permeable”. In series [6], this compound showed a half-life of over 2 h.
On to `NC1CCN(C2CN(CC[C@]3(c4ccc(Cl)c(Cl)c4)CCC(=O)N(CC4CC4)C3)C2)CC1`, for which the IC50 in series [1] was 6.31 nM. Also, the Kb in series [3] was 2 nM. In addition, the Caco-2 permeability result in series [19] was “Permeable”.
As for `O=C1CCN(C2CN(CC[C@]3(c4ccc(Cl)c(Cl)c4)CCC(=O)N(CC4CCC(F)(F)CC4)C3)C2)CC1`, the 50% inhibitory concentration (IC50) in [1] was 3.16 nM. In addition, the Kb in [3] is 0.2 nM.
The compound `NC1CCN(C2CN(CC[C@]3(c4ccc(Cl)c(Cl)c4)CCC(=O)N(CC4CCC(F)(F)CC4)C3)C2)CC1` came in with a pH-dependent lipophilicity (logD) in series [13] of 0.1. Moreover, it took 1 nM to reach half-maximal inhibition in [1] (IC50). Besides, the Kb in [3] was 0.2 nM. Moreover, the Caco-2 permeability in series [20] was under 1 % hr-1.
As to `O=C1CC[C@](CCN2CC(N3CCC(O)CC3)C2)(c2ccc(Cl)c(Cl)c2)CN1CC1CCC(F)(F)CC1`, in [13], the logD worked out at 2.2. In [1], this compound had a 50% inhibitory concentration (IC50) of 1.26 nM. For the same compound, the Kb in series [3] was 0.0794 nM. Further, the Caco-2 permeability result in series [21] is “Permeable”.

By IC50 is commonly meant the concentration at which inhibition is half-maximal. In general, pKi refers to the negative decadic logarithm of the Ki, by convention in mol/L. By half-life is commonly meant how long it takes for the measured level to halve. Broadly, the logD is lipophilicity at a set pH, counting ionised and neutral species. A high value points to a more lipophilic compound. A word on the clearance: it is a measure of how efficiently the substance is removed, as volume per time. Read a low clearance as a low capacity for elimination.
